Assay results reported in patent US20100286082A1, “RIBOSWITCHES AND METHODS AND COMPOSITIONS FOR USE OF AND WITH RIBOSWITCHES” (Yale University, priority 2007, published 2010).
Values joined by “and” are separate entries in the source; they are usually repeats but may differ in a detail not shown here. Identical values can stand only once.

Key:
[1] = tested on: 68 metH RNA; assay: In-line probing of 68 metH RNA (SAH aptamer); assay type: binding, Dechloromonas aromatica; conditions: for modulation of the RNA structure: concentrations as high as 1 mM
Procedure: iii. In-Line Probing Analysis In-line probing assays were carried out essentially as previously described (Soukup and Breaker, 1999). 5′^32P-labeled RNAs were incubated at room temperature for approximately 40 h in 10 μl volumes containing 50 mM Tris-HCl (pH 8.3 at 25° C.), 20 mM MgCl2, 100 mM KCl, and included test compounds at the concentrations indicated. Spontaneous cleavage products were separated by denaturing 10% PAGE, visualized using a Phosphorlmager (Molecular Dynamics), and quantified using SAFA v1.1 software (Das et al., 2005). The amount of RNA cleaved at each nucleotide position was obtained from SAFA analysis, which automatically determines reference nucleotide positions with invariant levels of spontaneous cleavage to correct for different amounts loaded in each lane. Individual band intensities at each modulated site were summed and normalized to obtain values for the fraction of RNA that was structurally modulated, assuming that there was no modulation in the absence of ligand and maximal modulation in the presence of the highest concentration of ligand. Values for the apparent dissociation constant (KD) were determined by fitting the plot of the fraction modulated (F), versus the ligand concentration, [L], at all three indicated modulation sites to the equation F [L]/([L]+KD) using SigmaPlot 9 software (Systat Software, Inc.).

[2] = tested on: 17-90 RNA; assay: In-line probing of 17-90 RNA (preQ1-II aptamer); assay type: binding, Streptococcus pneumoniae R6; conditions: for binding by 17-90 RNA: compound concentrations up to 1 mM; for Kd: read-out: apparent KD
[3] = Kinetics of cyclic di-GMP degradation under in-line probing conditions; assay type: physicochemical; conditions: in-line probing buffer, pH 8.3 at 23° C., 100 mM KCl, 20 mM MgCl2
Procedure: A solution of 500 μM cyclic di-GMP was incubated in the presence of in-line probing buffer (50 mM Tris-HCl [pH 8.3 at 23° C.], 100 mM KCl, 20 mM MgCl2) for varying amounts of time. The reactions were initiated by the addition of cyclic di-GMP and quenched when a 10 μL aliquot was injected onto an Agilent Technologies 1200 series HPLC equipped with an Agilent Zorbax Oligo column (5 μM, 6.2 mm×80 mm). The compounds were eluted using a gradient mobile phase composed of 95% 0.1 M NaHPO4 [pH 6.0 at 23° C.] and 5% acetonitrile to 100% 1 M NaCl. The absorbance was monitored at 254 nm. A rate constant for cyclic di-GMP was established by plotting the natural logarithm of the fraction of the cyclic di-GMP remaining uncleaved versus time, wherein the negative slope of the resulting line reflects the rate constant.

[4] = biological target: Escherichia coli PilZ protein domain (Escherichia coli, UniProt P76010); conditions: Ryjenkov 2006; cited from earlier work
[5] = biological target: 110 Vc2 RNA (Vc2 aptamer, GEMM RNA); assay: In-line probing of 110 Vc2 RNA (cyclic di-GMP aptamer); assay type: binding, Vibrio cholerae
Procedure: In-line probing assays were performed using methods similar to those described previously (Soukup 1999). Briefly, 5′^32P-labeled RNAs (˜[…] for cyclic di-GMP KD analysis, ˜5 nM for all other analyses) were incubated at 23° C. for approximately 40 hours in 20 mM MgCl2, 100 mM KCl, and 50 mM Tris (pH 8.3 at 23° C.) with the indicated compounds. RNA cleavage products were separated by denaturing 10% PAGE, visualized using a Phosphorimager (Molecular Dynamics), and analyzed using SAFA v1.1 software (Das 2005) or ImageQuant (Molecular Dynamics). SAFA software was used to normalize to correct for differences in the amounts of RNA loaded to each lane and to determine the intensity of each band.
To determine the KD of 110 Vc2 for cyclic di-GMP, in-line probing was conducted as described above with various concentrations of cyclic di-GMP. Due to the use of an exceptionally low concentration of radiolabeled 110 Vc2 RNA, the samples loaded were supplemented with additional unlabeled RNA that had been separately subjected to in-line probing. […] Dissociation constants (KD) were determined using ImageQuant software (Molecular Dynamics) to compare individual band intensities at sites of structural modulation assuming that there was no modulation in the absence of ligand and complete modulation in the presence of the highest ligand concentration tested. […]

[6] = tested on: 68 metH RNA; assay: Equilibrium dialysis of [3H]SAM with 68 metH RNA; assay type: binding, Dechloromonas aromatica
Procedure: (§1) The chambers were separated by a permeable membrane with a molecular weight cut-off of 5000 Daltons.
(§2) Equilibrium dialysis was performed by delivering 20 μl samples to each side of a Dispo-Equilibrium Biodialyzer (The Nest Group, Inc., Southboro, Mass., USA) wherein the separation between chambers is maintained by a dialysis membrane with a 5000 Dalton molecular weight cut-off. One chamber contained a buffer solution comprised of 100 mM Tris-HCl (pH 8.3 at 24° C.), 20 mM MgCl2, 100 mM KCl, plus 100 nM [^3H]SAM.

[7] = tested on: SAM-II aptamer 156 metA; conditions: 10 µM RNA, 100 nM [3H]SAM
Procedure: as §1, §2

[8] = biological target: SAM-I riboswitch 124 yitJ; assay: SAM-I riboswitch binding (literature); conditions: ratio of the KD for the compound to that for SAM
[9] = biological target: SAM-II aptamer 156 metA; conditions: Corbino et al., 2005; read-out: apparent KD for SAM; cited from earlier work
[10] = biological target: SAM-I riboswitch 124 yitJ; conditions: calculated previously (Lim et al. 2006); read-out: KD [compound] (nM) SAM-I; cited from earlier work
[11] = biological target: 132 Sc RNA (SAM-IV riboswitch); assay: In-line probing of 132 Sc RNA (SAM-IV); assay type: binding, Streptomyces coelicolor
From the text: DNA corresponding to the aptamer in the pEZ35 plasmid (above) was amplified by PCR with primers 5′-[…]

[12] = tested on: wild-type 149 moaA RNA (Moco RNA)-lacZ reporter fusion; assay: β-galactosidase reporter assay of 149 moaA RNA fusion; assay type: cell-based, Escherichia coli; conditions: modC deletion strain, LB supplemented with 10 mM compound
From the text: These sequences were cloned into a translational fusion plasmid upstream of, and in-frame with β-galactosidase reporter gene. The fusion was placed under the control of a constitutively active lacUV5 promoter to eliminate the effects of upstream anaerobic- and molybdate-dependent promoter regulation that naturally restricts expression of the moaA operon. This series of plasmids was placed in a strain of E. coli wherein the moaA gene was deleted. The resulting transformants were transformed with a plasmid containing the moaABCDE operon under the control of an arabinose-inducible and glucose-repressible promoter (Guzman et al., 1995). These doubly transformed strains enabled us to determine the role of the 149 moaA RNA on reporter gene expression when Moco concentrations are either high or low.
To determine whether molybdate is critical for gene regulation by 149 moaA RNA, a modC knockout strain of E. coli was conducted to eliminate high affinity molybdate transporter function. This strain was then transformed with the moaABCDE inducible expression plasmid and the wild-type and mutant 149 moaA reporter fusion plasmids.
To measure gene expression from lacZ in the wild-type and mutant reporter strains of E. coli, the cells were grown in a 14 mL culture vial with shaking overnight at 37° C. in 3 mL of LB with supplementation as indicated. […]

Chain of Escherichia coli PilZ protein domain (P76010 whole entry, the tested form may be a part): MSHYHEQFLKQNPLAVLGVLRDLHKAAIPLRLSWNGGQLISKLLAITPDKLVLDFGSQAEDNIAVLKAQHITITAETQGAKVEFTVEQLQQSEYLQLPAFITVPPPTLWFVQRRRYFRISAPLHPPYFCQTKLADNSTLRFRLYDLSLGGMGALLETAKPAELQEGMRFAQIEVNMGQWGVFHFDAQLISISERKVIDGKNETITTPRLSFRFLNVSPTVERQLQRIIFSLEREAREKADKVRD

CSCC[C@H](N)C(=O)O [methionine, L-methionine]
modulation of the RNA structure [1]: neither homocysteine nor methionine cause any modulation of the RNA structure

Nc1ncnc2c1ncn2[C@@H]1O[C@H](CSC[C@H](N)C(=O)O)[C@@H](O)[C@H]1O [SAC, S-adenosylcysteine]
loss of affinity relative to SAH ([1]; in-line probing): only a modest loss of affinity

N[C@@H](CCS)C(=O)O [homocysteine]
modulation of the RNA structure [1]: neither homocysteine nor methionine cause any modulation of the RNA structure

Cn1cnc2nc(N)[nH]c(=O)c21 [7-methylguanine]
binding by 17-90 RNA [2]: lack of 7-methylguanine binding

CN(C)Cc1c[nH]c2nc(N)[nH]c(=O)c12 [dimethylaminomethyl analog, 7-(N,N″-dimethylaminomethyl)-7-deazaguanine]
Kd [2]: ~500 nM

Nc1nc2c(ncn2[C@@H]2O[C@@H]3COP(=O)(O)O[C@H]4[C@@H](O)[C@H](n5cnc6c(=O)[nH]c(N)nc65)O[C@@H]4COP(=O)(O)O[C@H]3[C@H]2O)c(=O)[nH]1 [cyclic di-GMP]
rate constant for spontaneous cleavage [3]: 3.2e-06 min⁻¹ | Kd [4]: 840 nM | Kd ([5]; in-line probing with various cyclic di-GMP concentrations, read-out: apparent dissociation constant (KD)): ~1 nM

C[S+](CC[C@H](N)C(=O)O)C[C@H]1O[C@@H](n2cnc3c(N)ncnc32)[C@H](O)[C@@H]1O (stereo partly drawn) [[^3H]SAM, S-(5′-adenosyl)-L-methionine-(methyl-3H)]
shift of the distribution of [3H]SAM to the RNA chamber ([6]; 10 µM RNA, 100 nM [3H]SAM): no shift | shift of the distribution of [3H]SAM to the RNA chamber [7]: ~1.5 fold

C[S+](CC[C@H](N)C(=O)[O-])C[C@H]1O[C@@H](n2cnc3c(N)ncnc32)[C@H](O)[C@@H]1O (stereo partly drawn) [SAM, S-adenosyl-L-methionine]
discrimination against SAM ([6]; SAH versus SAM): ~3 orders of magnitude | Kd ([6]; equilibrium dialysis, 25 μM 68 metH RNA): ≥ 25000 nM | KD [compound]/ KD [SAM] SAM-I [8]: 1 | Kd [9]: ~1000 nM | Kd [10]: 5 nM | Kd ([11]; in-line probing, 132 Sc RNA, read-out: KD [compound] (nM) SAM-IV): 150 nM and ~150 nM | KD [compound]/ KD [SAM] SAM-IV ([11]; ratio of the KD for the compound to that for SAM): 1 | apparent KD relative to apparent KD for SAH ([1]; in-line probing, commercial SAM (contains ~10% SAH)): no more than 10 fold

Nc1ncc2[nH]cnc2n1 [2-aminopurine]
binding by 17-90 RNA [2]: no binding is detected

[Na+].[Na+].[O]=[W](=[O])([O-])[O-] [sodium tungstate]
reporter gene expression of WT 149 moaA reporter fusion [12]: becomes derepressed

[Na+].[Na+].[O]=[Mo](=[O])([O-])[O-] [sodium molybdate]
reporter gene expression of WT 149 moaA reporter fusion [12]: expression is repressed

Nc1nc2c(ncn2[C@@H]2O[C@H](COP(=O)(O)O)[C@@H](O)[C@H]2O)c(=O)[nH]1 [pG]
binding by the aptamer ([5]; concentration five orders of magnitude higher than the KD for cyclic di-GMP): not bound by the aptamer

N#CC1C=Nc2nc(N)[nH]c(=O)c21 (stereo not drawn) [preQ0, 7-cyano-7-deazaguanine]
Kd [2]: ~500 nM

Nc1nc2c(c(=O)[nH]1)CC=N2 [7-deazaguanine]
binding by 17-90 RNA [2]: bound with only a slightly better affinity
